In US9782420B2, “Method for treating eye diseases” (Kyoto University, priority 2013, dated 2017):

Legend:
[1] = system: CCR2 (monocyte chemoattractant protein 1 (MCP-1) receptor) deficient mice; assay: Experiment 1: Removal of drusen in aged mice; assay type: in vivo
Procedure: Experiment 1: Removal of Drusen in Aged Mice
The effect of the compound of number 32 (Compound 32) to remove previously formed drusen in relatively aged mice was tested. CCR2 (monocyte chemoattractant protein 1 (MCP-1) receptor) deficient mice were used. The mice in the group of Compound 32 (n=30 eyes) were orally administered with 50 mg/kg/day of Compound 32 dissolved in saline five days week from the age of nine months. The mice in the control group (n=48 eyes) were orally administered with the saline. The mice in the both groups were allowed to freely drink water. At the age of 6, 9, 10, 11, 12, 13, 14, and 15 months, the mice were examined by fundus photographs, optical coherence tomography (OCT) (Multiline OCT, Heidelberg Engineering) and electroretinogram (ERG).

CCR2 deficient mice = assay: Experiment 2: Suppression of formation of drusen in young mice; assay type: in vivo
Procedure: Experiment 2: Suppression of Formation of Drusen in Young Mice
The effect of the compound of number 32 (Compound 32) to suppress the formation of the drusen in young mice was tested. CCR2 deficient mice were used. The mice were allowed to freely drink water containing 0.385 mg/ml of Compound 32 from the age of two months. The mice in the control group were allowed to freely drink water not containing Compound 32. At the age of 2, 3.5, 6, and 9 months, the mice were examined by fundus photographs, OCT, and ERG.

Q: `Cc1cc(F)ccc1-c1ccc(/N=N/c2cc(S(=O)(=O)[O-])c3ccccc3c2N)cn1.[Na+]` [Compound 32, 4-amino-3-[6-(4-fluoro-2-methylphenyl)pyridine-3-ylazo]naphthalene-1-sulfonic acid sodium salt] was tested. Which “numbers of the drusen found in the fundus photographs (FIG. 5)” value ([1]; aged CCR2 deficient mice, oral 50 mg/kg/day from age of nine months, age 6 to 15 months, vs saline control) did it give?
A: the drusen were gradually increased in the control group but not in the mice administered with Compound 32

Q: And the “drusen in fundus photographs (FIGS. 2 to 4)” value ([1]; aged CCR2 deficient mice, oral 50 mg/kg/day in saline five days a week from age of nine months, photographs at age 9 and 15 months)?
A: the drusen disappeared in the area bounded by the line

Q: What about the “time-dependent change of the numbers of the drusen in individual mice (FIG. 6)” value ([1]; mice 1 to 4 administered with Compound 32, oral 50 mg/kg/day from age of nine months) of the same molecule?
A: gradually decreased after the administration

Q: What about the “b-wave amplitudes in the electroretinogram (FIG. 7)” value ([1]; mice at the age of 15 months, oral 50 mg/kg/day from age of nine months, vs control, p=<0.05) of the same molecule?
A: retinal function is better in the mice administered with Compound 32 than in the control mice

Q: And the “a-wave amplitudes in the electroretinogram (FIG. 14)” value (CCR2 deficient mice; mice at the age of 9 months, drinking water 0.385 mg/ml from age of two months, vs control, p=<0.001)?
A: function of photoreceptor cells is better in the mice administered with Compound 32 than in the control mice

Q: And the “b-wave amplitudes in the electroretinogram (FIG. 13)” value (CCR2 deficient mice; mice at the age of 9 months, drinking water 0.385 mg/ml from age of two months, vs control, p=<0.05)?
A: retinal function is better in the mice administered with Compound 32 than in the control mice

Q: And the “number of the drusen found in the fundus photographs (FIG. 12)” value (CCR2 deficient mice; young CCR2 deficient mice, drinking water 0.385 mg/ml from age of two months, age 2, 3.5, 6 and 9 months, vs control, p=<0.05)?
A: the drusen were gradually increased in the control group but not in the mice administered with Compound 32

Q: What about the “drusen in fundus photographs (FIGS. 9 to 11)” value (CCR2 deficient mice; young CCR2 deficient mice, drinking water containing 0.385 mg/ml from age of two months, photographs at age 3.5, 6, and 9 months) of the same molecule?
A: the drusen did not increase
